According to patent publication US20050124632A1, “Remedies and/or preventives for diabetic ischemic heart diseases” (priority 2001, published 2005):

Assays:
[1] = tested on: contractile protein system; assay: Relation between Ca concentration and contractile force in saponin-skinned papillary muscle fibers under acidosis (pH 6.6); assay type: cell-based, Wistar rats; details: for Hill n / Maximum Force / PCa50 / Resting Force: acidosis (pH6.6) + 1 μM MCC-135
Experimental: Diabetic cardiomyopathy model is prepared in a similar manner to that in Example 1. The rats 7 months after the administration of STZ were subjected to the experiments in a similar manner to that in Example 1. The rats were sacrificed and the hearts of the rats were isolated 7 months after the administration of STZ. The following experiment was conducted according to the method of Kitada et al. which is the same as that in the Example 1. Left ventricular papillary muscles were cut off from the isolated heart in an ice cooled Krebs-Henseleit solution, and contraction-relaxation function of the papillary muscles was measured by Magnus method. Some of the papillary muscles were applied to a functional analysis on a relation between various calcium ion (Ca) concentrations and contractile force by skinned fiber method with saponin treatment. Acidosis was induced by lowering the pH of the solution from 7.0 in normal to 6.6. A mode of change of relation between the various calcium ion (Ca) concentrations and the contractile forces in the presence or absence of MCC-135 was studied.

[2] = tested on: Ca leakage from sarcoplasmic reticulum; assay: Ca leakage from sarcoplasmic reticulum in saponin-skinned papillary muscle fiber preparations (caffeine-induced tension as index); assay type: cell-based, Wistar rats; details: MCC-135 10^-7 M to 10^-5 M, skinned fiber preparation
Experimental: Diabetic cardiomyopathy was induced in 7-week old Wistar rats by an intravenous injection of 40 mg/kg of Streptozotocin via each tail (purchased from Sigma, hereinafter may be referred to as “STZ”) (J. Exp. Med., 1979, 149: 623-631). Since a severe cardiac dysfunction is observed 5 to 6 months after the administration of STZ (Malone, J. I., Schocken, D. D., Morrison, A. D., Gilbert-Barness, E., Diabetic cardiomyopathy and carnitine deficiency. J-Diabetes-Complications. 1999, 13(2): 86-90), the rats were subjected to the experiments 7 months after the administration of STZ. The rats were sacrificed and the hearts of the rats were isolated 7 months after the administration of STZ. The following experiment was conducted according to the method of Kitada et al. (J. Pharmacol. Exp. Ther. 1987, 243: 633-638). Skinned fiber preparations were prepared by saponin treatments of papillary muscles of the hearts isolated from the rats 7 months after the administration of STZ and the control rats. A medium for the preparations was changed from Ca (calcium ion) free buffer solution to a solution of pCa 6.7 to have sarcoplasmic reticulum uptake a certain amount of Ca in the presence of ATP. […]

Cc1ccc(N2CCNCC2)c(S(=O)(=O)O)c1.O [MCC-135, 5-methyl-2-(1-piperazinyl)benzenesulfonic acid monohydrate]
effect on the action of acidosis on cardiac muscle ([1]; diabetic cardiomyopathy): blocked the action of acidosis in the diabetic cardiomyopathy
effect on the action of acidosis on cardiac muscle ([1]; normal hearts): had no effect on the action of acidosis on the normal hearts
Hill n ([1]; normal rat): 3.17 ± 0.42
Maximum Force ([1]; normal rat): 0.371 ± 0.027 mN/mm^2
PCa50 ([1]; normal rat): 5.43 ± 0.01
Resting Force ([1]; normal rat): 0 ± 0 n.s mN/mm^2
Hill n ([1]; rat with cardiomyopathy): 2.12 ± 0.20
Maximum Force ([1]; rat with cardiomyopathy): 0.286 ± 0.020**, *** mN/mm^2
PCa50 ([1]; rat with cardiomyopathy): 5.55 ± 0.07
Resting Force ([1]; rat with cardiomyopathy): 0.000 ± 0.000**, *** mN/mm^2
effect on Ca leakage from sarcoplasmic reticulum ([2]; normal rats): had no effect
effect on Ca leakage from sarcoplasmic reticulum ([2]; rats with diabetic cardiomyopathy (STZ, 7 months)): inhibited Ca leakage from the sarcoplasmic reticulum with diabetic cardiomyopathy in a concentration-dependant manner
